Like-named read-outs stand apart in the source and are kept apart here.
System: 407 cancer cell lines
Assay: Cell viability of cancer cell lines (IC50), CellTiter-Glo Viability Assay, 96 h
Assay type: cell-based
Conditions: for IC50: read-out: Absolute IC50
Description: Viability was determined by using the 50% inhibitory concentration (IC50) as determined with the CellTiter-Glo® Viability Assay (Promega).
Experiments were initiated by first thawing and equilibrating the CellTiter-Glo® Buffer to room temperature. The lyophilized CellTiter-Glo® Substrate was also equilibrated to room temperature. The lyophilized substrate was reconstituted with the CellTiter-Glo® buffer to form the CellTiter-Glo® Reagent.
Cells were harvested during the logarithmic growth period, counted, and the cell concentration adjusted to 4.44×10^4 cells/mL using culture medium.
Cells were allowed to grow overnight and the following day, the TO reading was obtained by adding 10 μL culture medium to each well of Plate A. The plate was allowed to equilibrate at room temperature for thirty minutes, after which 50 μL CellTiter-Glo® reagent was added to each well. The contents were mixed for 5 min on an orbital shaker to induce cell lysis. Plates were incubated for 20 minutes to stabilize the luminescent signal and the TO luminescence recorded.
Test plate B was incubated for 96 h in the humidified incubator at 37° C. with 5% CO2.
Following the incubation, the plate was equilibrated at room temperature for thirty minutes. CellTiter-Glo® (50 μL) was added to each well of the plate and contents mixed for five minutes on an orbital shaker to induce cell lysis. The luminescent signal was allowed to stabilize at room temperature for 20 minutes and the luminescence recorded.
IC50 (EC50) was calculated using a dose-response curve, fitted using a nonlinear regression model with a sigmoidal dose response. Survival rate was calculated using the formula:
The Surviving rate (%)=(LumTest article−LumMedium control)/(LumNon-treated−LumMedium control)×100%.
Absolute IC50 (EC50) was calculated according to the dose-response curve generated by the statistical software (GraphPad Prism 5.0).

N.N.[Cl][Pt][Cl] [Cisplatin, reference compound]
IC50 (22Rv1 cells, 96 h): 3.05 µM
IC50 (769-P cells, 96 h): 0.97 µM
IC50 (786-O cells, 96 h): 1.43 µM
IC50 (8505C): 2.01 µM
IC50 (A3/KAW cells, 96 h): 0.93 µM
IC50 (A253 cells, 96 h): 1.24 µM
IC50 (A498 cells, 96 h): 4.28 µM
IC50 (A549 cells, 96 h): 4.35 µM
IC50 (A875 cells, 96 h): 1.86 µM
IC50 (A2058, 96 h): 0.77 µM
IC50 (A2780 cells, 96 h): 1.38 µM
IC50 (A2780cis cells, 96 h): 5.55 µM
IC50 (A-172 cells, 96 h): 8.58 µM
IC50 (A-204 cells, 96 h): 1.05 µM
IC50 (A-375, 96 h): 1.04 µM
IC50 (A-427 cells, 96 h): 5.78 µM
IC50 (A-431, 96 h): 2.07 µM
IC50 (A-673 cells, 96 h): 0.26 µM
IC50 (ACHN cells, 96 h): 1.74 µM
IC50 (AGS cells, 96 h): 4.99 µM
IC50 (AMO-1 cells, 96 h): 1.92 µM
IC50 (AN3 CA, 96 h): 3 µM
IC50 (ASH-3 cells, 96 h): 2.72 µM
% inhibition at top conc. (AsPC-1 cells, 96 h): 78.18%
IC50 (AsPC-1 cells, 96 h): 4.94 µM
IC50 (BT474 cells, 96 h): 59 µM
IC50 (BT-20 cells, 96 h): 2.15 µM
% inhibition at top conc. (BT-483): 75.40%
IC50 (BT-483): 48.2 µM
IC50 (BT-549 cells, 96 h): 4.7 µM
IC50 (BxPC-3): 1.27 µM
IC50 (C4-2, 96 h): 14.9 µM
% inhibition at top conc. (C666-1 cells, 96 h): 73.03%
IC50 (C666-1 cells, 96 h): 18.1 µM
IC50 (C-33 A cells, 96 h): 0.92 µM
IC50 (CADO-ES1): 1.03 µM
IC50 (CAL-27 cells, 96 h): 0.89 µM
IC50 (CAL-120): 7.91 µM
IC50 (CAMA-1, 96 h): 9.44 µM
IC50 (CCK-81 cells, 96 h): 4.51 µM
IC50 (CCRF-CEM): 0.55 µM
IC50 (CFPAC-1): 4.13 µM
IC50 (COLO 205, 96 h): 1.97 µM
IC50 (COLO 320DM, 96 h): 3.18 µM
IC50 (COV644 cells, 96 h): 14.2 µM
IC50 (Ca Ski cells, 96 h): 6.44 µM
IC50 (Caki-2): 3.35 µM
IC50 (Calu-1): 4.77 µM
% inhibition at top conc. (Calu-3, 96 h): 77.35%
IC50 (Calu-3, 96 h): 0.35 µM
IC50 (Calu-6): 0.71 µM
IC50 (Caov-3 cells, 96 h): 3.61 µM
IC50 (Capan-1): 0.68 µM
IC50 (Capan-2): 21.9 µM
IC50 (CoC1/DDP cells, 96 h): 5.78 µM
IC50 (CoC1 cells, 96 h): 3.24 µM
IC50 (DLD-1): 2.43 µM
IC50 (DMS 53 cells, 96 h): 2.85 µM
IC50 (DMS 79): 0.81 µM
IC50 (DMS 114 cells, 96 h): 2.02 µM
IC50 (DOHH-2 cells, 96 h): 0.19 µM
IC50 (DU 145, 96 h): 1.15 µM
IC50 (DU4475): 1.35 µM
IC50 (DV-90 cells, 96 h): 3.25 µM
IC50 (Daoy cells, 96 h): 0.39 µM
IC50 (Daudi cells, 96 h): 0.21 µM
IC50 (Detroit 562 cells, 96 h): 1.35 µM
IC50 (DoTc2 4510 cells, 96 h): 2.84 µM
IC50 (EBC-1, 96 h): 4.61 µM
IC50 (EFM-192A, 96 h): 11.3 µM
IC50 (EJM cells, 96 h): 6.74 µM
IC50 (EOL-1): 0.46 µM
IC50 (ES-2 cells, 96 h): 3.51 µM
IC50 (FTC-133): 0.98 µM
IC50 (G-292 clone A141B1 cells, 96 h): 1.11 µM
IC50 (GTL-16 cells, 96 h): 1.09 µM
IC50 (H4 cells, 96 h): 2.26 µM
IC50 (HBL-1): 1.21 µM
IC50 (HCC38): 2.86 µM
IC50 (HCC 94 cells, 96 h): 1.98 µM
IC50 (HCC827 cells, 96 h): 8.58 µM
IC50 (HCC1187 cells, 96 h): 2.01 µM
IC50 (HCC1428): 34.9 µM
IC50 (HCC1500): 7.64 µM
IC50 (HCC1569): 5.78 µM
IC50 (HCC1806 cells, 96 h): 2.23 µM
IC50 (HCC1937): 5.07 µM
IC50 (HCC1954): 7.18 µM
IC50 (HCC2218, 96 h): 10.8 µM
IC50 (HCC2935): 51.7 µM
IC50 (HCC4006, 96 h): 5.76 µM
IC50 (HCC-78 cells, 96 h): 2.25 µM
IC50 (HCCC-9810): 2.96 µM
% inhibition at top conc. (HCCLM3 cells, 96 h): 60.88%
IC50 (HCCLM3 cells, 96 h): 10.8 µM
IC50 (HCT-8): 9.04 µM
